Test results: US20240417393A1, “CERTAIN 2,5-DIAZABICYCLO[4.2.0]OCTANES AS GLP-1 RECEPTOR MODULATORS” (ASTRAZENECA AB, priority 2021, published 2024)

What was measured:
[1] = target: T1, human phosphodiesterase-3A (Homo sapiens, UniProt Q14432); assay: PDE3 Assay ([3H]cAMP to 5'AMP, SPA); assay type: biochemical; details: human recombinant PDE3A expressed in Sf9 cells; 450 nM cAMP; 20 min at 22° C.
T1 construct: host or cells: Sf9 (Spodoptera frugiperda) cells
Procedure: Evaluation of the effects of compounds on the activity of the human phosphodiesterase-3A is quantified by measuring the formation of 5′AMP from cAMP using a human recombinant is enzyme expressed in a clonal isolate of Spodoptera frugiperda cells (Sf9) cells.
The test compound, reference compound or water (control) are added to a buffer containing 40 mM tris(hydroxymethyl)aminomethane (Tris)/HCl (pH 7.4) and 8 mM MgCl2, 450 nMcAMP and 0.25 μCi [^3H]cAMP.
Thereafter, the reaction is initiated by addition of the enzyme (about 1U) and the mixture is incubated for 20 min at 22° C.
For basal control measurements, the enzyme is omitted from the reaction mixture.
Following incubation SPA beads are added. After 30 min at 22° C. under shaking, the amount of [^3H]5′AMP is quantified with a scintillation counter (Topcount, Packard).
The results are expressed as a percent inhibition of the control enzyme activity. The standard inhibitory reference compound is milrinone (CAS number 78415-72-2), which is tested in each experiment at several concentrations to obtain an inhibition curve from which its IC50 value is calculated.

human GLP-1R receptor = target: T2, human GLP-1R receptor (Homo sapiens, UniProt P43220, L260F); assay: CHOK1 GLP-1R cAMP Assay (HTRF); assay type: cell-based; details: CHO-K1 cells stably expressing human GLP-1R (Leu260Phe variant), 20 min at rt
T2 construct: expressed in transfected cells; host or cells: CHO-K1 (ATCC CCL-61)

[2] = target: T3, GLP-1R in a pancreatic insulinoma cell line (EndoC-PH1) (Homo sapiens, UniProt P43220); assay: EndoC cAMP Accumulation Assay (HTRF); assay type: cell-based; details: EndoC-PH1 human pancreatic beta cell line, endogenous GLP-1R, 30 min at rt
T3 construct: host or cells: EndoC-βH1 human pancreatic beta cell line
Outline: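 Thawed human EndoC-βH1 cells, about 3000 per well, stimulated with compound 30 min at room temperature in HBSS/HEPES pH 7.4 with 0.1% BSA and 0.5 mM IBMX; cAMP by competitive HTRF. Responses as % activation relative to maximal GIP (82.5 nM), 4-parameter logistic fit.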

T3 sequence (P43220 24-463): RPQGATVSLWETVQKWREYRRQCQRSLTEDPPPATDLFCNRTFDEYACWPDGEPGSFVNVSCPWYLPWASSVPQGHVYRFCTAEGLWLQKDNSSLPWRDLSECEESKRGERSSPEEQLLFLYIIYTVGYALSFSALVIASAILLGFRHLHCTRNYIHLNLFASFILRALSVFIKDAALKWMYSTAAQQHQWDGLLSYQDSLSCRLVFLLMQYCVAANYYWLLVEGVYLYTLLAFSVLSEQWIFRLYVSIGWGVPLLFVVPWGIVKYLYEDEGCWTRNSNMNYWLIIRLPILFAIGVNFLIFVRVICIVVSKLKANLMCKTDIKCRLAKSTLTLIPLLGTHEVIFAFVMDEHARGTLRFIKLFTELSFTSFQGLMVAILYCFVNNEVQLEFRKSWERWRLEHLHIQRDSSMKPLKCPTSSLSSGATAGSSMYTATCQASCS
T1 sequence (Q14432 whole entry): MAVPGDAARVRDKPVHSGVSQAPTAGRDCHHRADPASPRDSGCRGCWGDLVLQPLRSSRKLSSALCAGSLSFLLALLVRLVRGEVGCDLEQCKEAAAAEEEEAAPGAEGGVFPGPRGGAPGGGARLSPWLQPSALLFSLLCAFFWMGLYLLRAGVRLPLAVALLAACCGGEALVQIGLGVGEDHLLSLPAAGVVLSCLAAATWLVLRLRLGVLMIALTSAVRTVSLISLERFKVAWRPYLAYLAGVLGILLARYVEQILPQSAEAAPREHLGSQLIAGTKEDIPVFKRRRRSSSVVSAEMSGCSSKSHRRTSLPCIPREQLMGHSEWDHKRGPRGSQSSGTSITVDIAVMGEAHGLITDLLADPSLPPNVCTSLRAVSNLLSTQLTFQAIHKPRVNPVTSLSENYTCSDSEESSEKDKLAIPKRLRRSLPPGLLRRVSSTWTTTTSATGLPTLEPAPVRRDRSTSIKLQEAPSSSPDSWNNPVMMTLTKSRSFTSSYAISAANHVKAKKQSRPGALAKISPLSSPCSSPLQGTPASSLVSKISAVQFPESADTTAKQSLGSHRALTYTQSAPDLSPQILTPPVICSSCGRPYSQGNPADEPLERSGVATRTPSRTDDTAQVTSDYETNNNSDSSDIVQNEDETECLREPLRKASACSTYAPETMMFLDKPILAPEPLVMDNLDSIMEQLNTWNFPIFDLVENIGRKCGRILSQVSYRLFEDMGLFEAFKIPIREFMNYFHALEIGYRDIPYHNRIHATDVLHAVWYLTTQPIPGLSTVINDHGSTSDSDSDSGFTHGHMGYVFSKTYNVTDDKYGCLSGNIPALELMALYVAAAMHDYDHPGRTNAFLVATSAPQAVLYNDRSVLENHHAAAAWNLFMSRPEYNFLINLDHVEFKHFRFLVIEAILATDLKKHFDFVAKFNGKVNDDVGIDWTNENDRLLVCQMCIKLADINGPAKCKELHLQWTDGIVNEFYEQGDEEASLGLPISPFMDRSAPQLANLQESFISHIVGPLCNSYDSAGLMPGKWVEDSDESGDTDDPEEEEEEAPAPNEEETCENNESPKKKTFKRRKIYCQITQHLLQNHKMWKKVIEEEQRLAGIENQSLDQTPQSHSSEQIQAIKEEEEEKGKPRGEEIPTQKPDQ
T2 sequence (P43220 24-463 L260F): as the sequence (P43220 24-463) above, with L237F counted along it

Row | Structure (SMILES) | IC50 [1] | EC50 (human GLP-1R receptor) | EC50 [2]
1 | COc1cc(C(=O)O)cc2c1nc(CN1CCN(c3cccc4c3O[C@@](C)(c3ccc(Cl)cn3)O4)[C@@H]3CC[C@@H]31)n2C[C@@H]1CCO1 (single isomer, unassigned) [Example 2d, 2-((1R*,6S*)-5-(R*)-2-(5-Chloropyridin-2-yl)-2-methylbenzo[d][1,3]dioxol-4-yl)-2,5-diazabicyclo[4.2.0]octan-2-yl)methyl)-4-methoxy-1-(((S)-oxetan-2-yl)methyl)-1H-benzo[d]imidazole-6-carboxylic acid] | > 100000 nM |  | 
2 | C[C@]1(c2ccc(Cl)cn2)Oc2cccc(N3CCN(Cc4nc5ccc(C(=O)O)cc5n4C[C@@H]4CCO4)[C@H]4CC[C@H]43)c2O1 (single isomer, unassigned) [Example 5a, 2-((1R*,6S*)-5-(R*)-2-(5-Chloropyridin-2-yl)-2-methylbenzo[d][1,3]dioxol-4-yl)-2,5-diazabicyclo[4.2.0]octan-2-yl)methyl)-1-(((S)-oxetan-2-yl)methyl)-1H-benzo[d]imidazole-6-carboxylic acid] | > 100000 nM | 1.9 nM | 6.5 nM
3 | C[C@]1(c2ccc(Cl)cn2)Oc2cccc(N3CCN(Cc4nc5c(F)cc(C(=O)O)cc5n4C[C@@H]4CCO4)[C@H]4CC[C@H]43)c2O1 (single isomer, unassigned) [Example 1c, 2-((1R*,6S*)-5-(R*)-2-(5-Chloropyridin-2-yl)-2-methylbenzo[d][1,3]dioxol-4-yl)-2,5-diazabicyclo[4.2.0]octan-2-yl)methyl)-4-fluoro-1-(((S)-oxetan-2-yl)methyl)-1H-benzo[d]imidazole-6-carboxylic acid] | > 100000 nM | 2.2 nM | 3.2 nM
4 | C[C@]1(c2ccc(Cl)cn2)Oc2cccc(N3CCN(Cc4nc5c(Cl)cc(C(=O)O)cc5n4C[C@@H]4CCO4)[C@@H]4CC[C@H]43)c2O1 (single isomer, unassigned) [Example 3b] | > 100000 nM | 0.9 nM | 2.6 nM
5 | COc1cc(C(=O)O)cc2c1nc(CN1CCN(c3cccc4c3O[C@@](C)(c3ccc(Cl)cn3)O4)[C@H]3CC[C@@H]31)n2C[C@@H]1CCO1 (single isomer, unassigned) [Example 6a, 2-(((1R*,6R*)-5-((R*)-2-(5-Chloropyridin-2-yl)-2-methylbenzo[d][1,3]dioxol-4-yl)-2,5-diazabicyclo[4.2.0]octan-2-yl)methyl)-4-methoxy-1-(((S)-oxetan-2-yl)methyl)-1H-benzo[d]imidazole-6-carboxylic acid] | > 100000 nM |  | 
6 | C[C@]1(c2ccc(Cl)cn2)Oc2cccc(N3CCN(Cc4nc5c(Cl)cc(C(=O)O)cc5n4C[C@@H]4CCO4)[C@H]4CC[C@@H]43)c2O1 (single isomer, unassigned) [Example 3c, 4-Chloro-2-(((1R*,6R*)-5-((R*)-2-(5-chloropyridin-2-yl)-2-methylbenzo[d][1,3]dioxol-4-yl)-2,5-diazabicyclo[4.2.0]octan-2-yl)methyl)-1-(((S)-oxetan-2-yl)methyl)-1H-benzo[d]imidazole-6-carboxylic acid] | > 100000 nM | 11 nM | 8.8 nM
7 | C[C@]1(c2ccc(Cl)cn2)Oc2cccc(N3CCN(Cc4nc5c(F)cc(C(=O)O)cc5n4C[C@@H]4CCO4)[C@H]4CC[C@H]43)c2O1 (single isomer, unassigned) [Example 1b, 2-(((1R*,6S*)-5-((R*)-2-(5-Chloropyridin-2-yl)-2-methylbenzo[d][1,3]dioxol-4-yl)-2,5-diazabicyclo[4.2.0]octan-2-yl)methyl)-4-fluoro-1-(((S)-oxetan-2-yl)methyl)-1H-benzo[d]imidazole-6-carboxylic acid] | > 87000 nM | 1.2 nM | 2.9 nM
8 | COc1cc(C(=O)O)cc2c1nc(CN1CCN(c3cccc4c3O[C@@](C)(c3ccc(Cl)cn3)O4)[C@@H]3CC[C@@H]31)n2C[C@@H]1CCO1 (single isomer, unassigned) [Example 2a, 2-((1R*,6S*)-5-(R*)-2-(5-Chloropyridin-2-yl)-2-methylbenzo[d][1,3]dioxol-4-yl)-2,5-diazabicyclo[4.2.0]octan-2-yl)methyl)-4-methoxy-1-(((S)-oxetan-2-yl)methyl)-1H-benzo[d]imidazole-6-carboxylic acid] | > 100000 nM |  | 

The next lines start with the values.

Row | IC50 [1] | EC50 (human GLP-1R receptor) | EC50 [2] | Structure (SMILES)
9 | > 100000 nM | 0.8 nM | 3.3 nM | C[C@]1(c2ccc(Cl)cc2F)Oc2cccc(N3CCN(Cc4nc5c(F)cc(C(=O)O)cc5n4C[C@@H]4CCO4)[C@H]4CC[C@H]43)c2O1 (single isomer, unassigned) [Example 9b]
10 | > 100000 nM | 2.5 nM | 6.1 nM | COc1cc(C(=O)O)cc2c1nc(CN1CCN(c3cccc4c3O[C@@](C)(c3ccc(Cl)cn3)O4)[C@H]3CC[C@@H]31)n2C[C@@H]1CCCO1 (single isomer, unassigned) [Example 7b, 2-(((1R*,6R*)-5-((R*)-2-(5-Chloropyridin-2-yl)-2-methylbenzo[d][1,3]dioxol-4-yl)-2,5-diazabicyclo[4.2.0]octan-2-yl)methyl)-4-methoxy-1-(((S)-tetrahydrofuran-2-yl)methyl)-1H-benzo[d]imidazole-6-carboxylic acid]
11 | > 100000 nM | 0.9 nM | 3.5 nM | CCn1ccnc1Cn1c(CN2CCN(c3cccc4c3O[C@@](C)(c3ccc(Cl)cn3)O4)[C@H]3CC[C@@H]32)nc2c(Cl)cc(C(=O)O)cc21 (single isomer, unassigned) [Example 10a]
12 | > 100000 nM | 1.6 nM | 2.6 nM | COc1cc(C(=O)O)cc2c1nc(CN1CCN(c3cccc4c3O[C@@](C)(c3ccc(Cl)cn3)O4)[C@@H]3CC[C@@H]31)n2C[C@@H]1CCCO1 (single isomer, unassigned) [Example 8c]
13 |  | 7 nM | 7.3 nM | C[C@]1(c2ccc(Cl)cc2F)Oc2cccc(N3CCN(Cc4nc5ccc(C(=O)O)cc5n4C[C@@H]4CCO4)[C@H]4CC[C@@H]43)c2O1 (single isomer, unassigned) [Example 21a, 2-(((1R*,6R*)-5-((R*)-2-(4-Chloro-2-fluorophenyl)-2-methylbenzo[d][1,3]dioxol-4-yl)-2,5-diazabicyclo[4.2.0]octan-2-yl)methyl)-1-(((S)-oxetan-2-yl)methyl)-1H-benzo[d]imidazole-6-carboxylic acid]
